Laboratory results taken from BigSolDB 2.1.

O=C(O)COc1ccc2ccccc2c1
solubility (mole fraction)
Conditions	278.15 K	283.15 K	288.15 K	293.15 K	298.15 K	303.15 K	308.15 K	313.15 K	318.15 K	323.15 K
in acetone	0.038	0.0427	0.0481	0.0543	0.0613	0.0693	0.0785	0.089	0.101	0.115
in acetonitrile	0.00475	0.00574	0.00695	0.0084	0.0101	0.0123	0.0148	0.0178	0.0214	0.0258
in ethanol	0.0128	0.0152	0.0181	0.0217	0.0261	0.0315	0.0383	0.0469	0.0582	0.0728
in ethyl acetate	0.0145	0.0167	0.0192	0.0221	0.0255	0.0294	0.034	0.0393	0.0455	0.0527
in isobutanol	0.00557	0.00685	0.00854	0.0106	0.0132	0.0165	0.0208	0.0262	0.0333	0.0422
in isopropanol	0.00742	0.00922	0.0115	0.0144	0.0171	0.0217	0.0262	0.03	0.0359	0.0407
in isopropyl acetate	0.0105	0.0121	0.014	0.0162	0.0187	0.0216	0.025	0.029	0.0336	0.039
in methanol	0.0132	0.0157	0.0188	0.0227	0.0276	0.0339	0.0415	0.052	0.0656	0.0846
in methyl acetate	0.0156	0.0181	0.021	0.0243	0.0283	0.0329	0.0382	0.0445	0.0517	0.0602
in n-pentanol	0.0114	0.0137	0.0164	0.019	0.0242	0.0294	0.0362	0.0433	0.0526	0.0691
in n-propanol	0.0101	0.012	0.0146	0.0178	0.0214	0.0273	0.0324	0.04	0.0506	0.0635
in n-propyl acetate	0.0123	0.0142	0.0164	0.0189	0.0219	0.0253	0.0293	0.0339	0.0393	0.0454
